Results as given in patent US11767323B2, “Tricyclic pyridone compounds as JAK2 V617F inhibitors” (Incyte Corporation, priority 2020, dated 2023).

Assays:
[1] = target: catalytic domain (JH1, amino acids 808-1132) of human JAK2 (Homo sapiens (Human), UniProt O60674); assay: JAK2 HTRF Enzyme Activity Assay; format: biochemical; details: JAK2 0.015 nM, ATP (30 μM or 1 mM), 60 minutes at 25° C.
Experimental: Example D. JAK2 HTRF Enzyme Activity Assay
JAK2 enzyme activity assays utilize catalytic domain (JH1, amino acids 808-1132) of human JAK2 expressed as N-terminal His-tagged protein in a baculovirus expression system (BPS Bioscience, Catalog #40450). The assays was conducted in black 384-well polystyrene plates in a final reaction volume of 20 μL. JAK2 (0.015 nM) was incubated with compounds (100 nL serially diluted in DMSO) in the presence of ATP (30 μM or 1 mM) and 500 nM Biotin-labeled EQEDEPEGDYFEWLE (SEQ ID NO.: 1) peptide (BioSource International, custom synthesis) in assay buffer (50 mM Tris, pH=7.5, 10 mM MgCl2, 0.01% Brij-35, 0.1% BSA, 1 mM EGTA, 5% Glycerol and 5 mM DTT) for 60 minutes at 25° C. The reactions were stopped by the addition of 10 μL of detection buffer (50 mM Tris, pH 7.8, 0.5 mg/mL BSA, 150 mM NaCl), supplemented with EDTA, LANCE Eu-W1024 anti-phosphotyrosine (PY20), (PerkinElmer, Catalog #AD0067) and Streptavidin SureLight APC (PerkinElmer Catalog #CR130-100), for a final concentration of 15 mM, 1.5 nM and 75 nM, respectively. HTRF signals were read after 30 minutes incubation at room temperature on a PHERAstar FS plate reader (BMG LAB TECH). Data was analyzed with IDBS XLfit and GraphPad Prism 5.0 software using a four parameter dose response curve to determine IC50 for each compound.

[2] = target: catalytic domain (JH1, amino acids 826-1132) of human JAK2 (Homo sapiens (Human), UniProt O60674); assay: JAK2 LanthaScreen JH1 Binding Assay; details: JAK2 JH1 1.5 nM, 50 nM tracer, 2 hours at 25° C.; read-out: JH1 BIND IC50
catalytic domain (JH1, amino acids 826-1132) of human JAK2, sequence (O60674 826-1132): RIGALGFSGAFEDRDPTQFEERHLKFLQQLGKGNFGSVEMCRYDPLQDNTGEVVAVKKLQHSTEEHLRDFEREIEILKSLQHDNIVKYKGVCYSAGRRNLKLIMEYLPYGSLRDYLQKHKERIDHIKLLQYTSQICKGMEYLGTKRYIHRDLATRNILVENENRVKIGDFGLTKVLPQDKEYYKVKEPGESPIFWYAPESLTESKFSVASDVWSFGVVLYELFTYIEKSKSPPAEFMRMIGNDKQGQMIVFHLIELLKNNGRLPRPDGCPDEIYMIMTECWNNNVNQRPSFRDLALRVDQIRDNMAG
Experimental: Example A. JAK2 LanthaScreen JH1 Binding Assay
JAK2 JH1 binding assay utilizes catalytic domain (JH1, amino acids 826-1132) of human JAK2 expressed as N-terminal FLAG-tagged, biotinylated protein in a baculovirus expression system (Carna Biosciences, Product #08-445-20N). The assay was conducted in black 384-well polystyrene plates in a final reaction volume of 20 μL. JAK2 JH1 (1.5 nM) was incubated with compounds (100 nL serially diluted in DMSO) in the presence of 50 nM Fluorescent JAK2-JH1 Tracer and 0.5 nM Streptavidin-Tb cryptate (Cisbio Part #610SATLB) in assay buffer (50 mM Tris, pH=7.5, 10 mM MgCl2, 0.01% Brij-35, 0.1% BSA, 1 mM EGTA, 5% Glycerol and 5 mM DTT). Non-specific binding was accessed in the presence of 2 mM ATP. After incubation for 2 hours at 25° C., LanthaScreen signals were read on a PHERAstar FS plate reader (BMG LABTECH). Data was analyzed with IDBS XLfit and GraphPad Prism 5.0 software using a four parameter dose response curve to determine IC50 for each compound.

[3] = target: pseudo-kinase domain (JH2, amino-acids 536-812) of human Wild Type JAK2 (Homo sapiens (Human), UniProt O60674, F794H/W659A/W777A); assay: JAK2 LanthaScreen JH2-WT Binding Assay; details: JAK2 JH2-WT 0.145 nM, 50 nM tracer, 1 hour at 25° C.; read-out: JH2 BIND WT IC50
pseudo-kinase domain (JH2, amino-acids 536-812) of human Wild Type JAK2, sequence (O60674 536-812 W659A/W777A/F794H): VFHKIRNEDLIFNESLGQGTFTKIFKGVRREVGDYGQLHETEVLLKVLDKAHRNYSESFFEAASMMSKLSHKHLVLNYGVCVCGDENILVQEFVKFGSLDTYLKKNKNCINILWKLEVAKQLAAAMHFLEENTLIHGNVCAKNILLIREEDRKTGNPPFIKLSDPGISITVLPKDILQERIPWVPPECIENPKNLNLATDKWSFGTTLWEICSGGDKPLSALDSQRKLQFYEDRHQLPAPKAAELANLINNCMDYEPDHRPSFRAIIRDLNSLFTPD
Experimental: Example B. JAK2 LanthaScreen JH2-WT Binding Assay
(§1) JAK2 JH2-WT binding assay utilizes pseudo-kinase domain (JH2, amino-acids 536-812 with 3 surface mutations W659A, W777A, F794H) of human Wild Type JAK2 expressed as C-terminal His-Avi-tagged, biotinylated protein in a baculovirus expression system (BPS Bioscience, Catalog #79463). The assay was conducted in black 384-well polystyrene plates in a final reaction volume of 20 μL. JAK2 JH2-WT (0.145 nM) was incubated with compounds (100 nL serially diluted in DMSO) in the presence of 50 nM Fluorescent JAK2-JH2 Tracer (MedChem Express Catalog #HY-102055) and 0.25 nM Streptavidin-Tb cryptate (Cisbio Part #610SATLB) in assay buffer (50 mM Tris, pH=7.5, 10 mM MgCl2, 0.01% Brij-35, 0.1% BSA, 1 mM EGTA, 5% Glycerol and 5 mM DTT). Non-specific binding was accessed in the presence of 2 mM ATP. After incubation for 1 hour at 25° C., LanthaScreen signals were read on a PHERAstar FS plate reader (BMG LAB TECH). Data was analyzed with IDBS XLfit and GraphPad Prism 5.0 software using a four parameter dose response curve to determine IC50 for each compound.

[4] = target: pseudo-kinase domain (JH2, amino-acids 536-812) of human V617F mutant JAK2 (Homo sapiens (Human), UniProt O60674, F794H/V617F/W659A/W777A); assay: JAK2 LanthaScreen JH2-V617F Binding Assay; details: JAK2 JH2-V617F 0.26 nM, 50 nM tracer, 1 hour at 25° C.; read-out: JH2 BIND V617F IC50
pseudo-kinase domain (JH2, amino-acids 536-812) of human V617F mutant JAK2, sequence (O60674 536-812 V617F/W659A/W777A/F794H): as the sequence (O60674 536-812 W659A/W777A/F794H) above, with V82F counted along it
Experimental: Example C. JAK2 LanthaScreen JH2-V617F Binding Assay
as §1, with “JH2-V617F” for “JH2-WT”, “V617F mutant” for “Wild Type”, “#79498).” for “#79463).”, “JH2-V617F (0.26” for “JH2-WT (0.145”, “LABTECH).” for “LAB TECH).”

catalytic domain (JH1, amino acids 808-1132) of human JAK2, sequence (O60674 808-1132): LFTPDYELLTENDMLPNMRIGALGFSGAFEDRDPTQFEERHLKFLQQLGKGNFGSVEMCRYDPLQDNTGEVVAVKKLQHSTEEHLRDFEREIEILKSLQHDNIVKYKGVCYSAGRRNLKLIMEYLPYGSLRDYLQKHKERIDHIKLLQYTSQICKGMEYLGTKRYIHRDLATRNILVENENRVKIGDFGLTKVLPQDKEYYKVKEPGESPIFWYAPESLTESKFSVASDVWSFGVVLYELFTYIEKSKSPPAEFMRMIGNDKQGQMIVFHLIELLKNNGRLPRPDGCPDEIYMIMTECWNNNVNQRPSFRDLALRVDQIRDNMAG

SMILES	IC50 [1] [nM]	IC50 [2] [nM]	IC50 [3] [nM]	IC50 [4] [nM]
Cn1c(=O)c(-c2ccc(C(=O)O)cc2)cc2c3cc(-c4ccc(CN5CCC(S(C)(=O)=O)CC5)cc4)[nH]c3ncc21 [Example 14, 4-(6-Methyl-2-(4-((4-(methylsulfonyl)piperidin-1-yl)methyl)phenyl)-7-oxo-6,7-dihydro-3H-pyrrolo[3,2-f][1,7]naphthyridin-8-yl)benzoic acid]	100 to 500	100 to 500	≤ 100	≤ 100
CCn1c(=O)c(-c2ccc(C(=O)O)cc2)cc2c3cc(-c4ccc(CN5CCC(S(C)(=O)=O)CC5)cc4)[nH]c3ncc21 [Example 15, 4-(6-Ethyl-2-(4-((4-(methylsulfonyl)piperidin-1-yl)methyl)phenyl)-7-oxo-6,7-dihydro-3H-pyrrolo[3,2-f][1,7]naphthyridin-8-yl)benzoic acid]	1000 to 10000	1000 to 10000	500 to 1000	1000 to 10000
CCc1c(-c2ccc(C(=O)O)cc2)c(=O)n(C)c2cnc3[nH]c(-c4ccc(CN5CCC(S(C)(=O)=O)CC5)cc4)cc3c12 [Example 16, 4-(9-Ethyl-6-methyl-2-(4-((4-(methylsulfonyl)piperidin-1-yl)methyl)phenyl)-7-oxo-6,7-dihydro-3H-pyrrolo[3,2-f][1,7]naphthyridin-8-yl)benzoic acid]	100 to 500	100 to 500	≤ 100	≤ 100
Cc1cc(=O)[nH]c2cnc3[nH]c(-c4ccc(CN5CCC(S(C)(=O)=O)CC5)cc4)cc3c12 [Example 17, 9-Methyl-2-(4-((4-(methylsulfonyl)piperidin-1-yl)methyl)phenyl)-3,6-dihydro-7H-pyrrolo[3,2-f][1,7]naphthyridin-7-one]	1000 to 10000	1000 to 10000	1000 to 10000	1000 to 10000
Cc1c(-c2ccc([N+](=O)[O-])cc2)c(=O)[nH]c2cnc3[nH]c(-c4ccc(CN5CCC(S(C)(=O)=O)CC5)cc4)cc3c12 [Example 18, 9-Methyl-2-(4-((4-(methylsulfonyl)piperidin-1-yl)methyl)phenyl)-8-(4-nitrophenyl)-3,6-dihydro-7H-pyrrolo[3,2-f][1,7]naphthyridin-7-one]	1000 to 10000	1000 to 10000	500 to 1000	1000 to 10000
Cc1c(-c2ccc3c(c2)OCCO3)c(=O)[nH]c2cnc3[nH]c(-c4ccc(CN5CCC(S(C)(=O)=O)CC5)cc4)cc3c12 [Example 19, 8-(2,3-Dihydrobenzo[6][1,4]dioxin-6-yl)-9-methyl-2-(4-((4-(methylsulfonyl)piperidin-1-yl)methyl)phenyl)-3,6-dihydro-7H-pyrrolo[3,2-f][1,7]naphthyridin-7-one]	1000 to 10000	1000 to 10000	1000 to 10000	1000 to 10000
COc1c(-c2ccccc2)c(=O)n(C)c2cnc3[nH]c(-c4ccc(CN5CCC(S(C)(=O)=O)CC5)cc4)cc3c12 [Example 20, 9-Methoxy-6-methyl-2-(4-((4-(methylsulfonyl)piperidin-1-yl)methyl)phenyl)-8-phenyl-3,6-dihydro-7H-pyrrolo[3,2-f][1,7]naphthyridin-7-one]	≤ 100	≤ 100	≤ 100	100 to 500
Cc1cc(-c2c(C3CCOCC3)c3c4cc(-c5ccc(CN6CCC(S(C)(=O)=O)CC6)cc5)[nH]c4ncc3n(C)c2=O)on1 [Example 21, 6-Methyl-8-(3-methylisoxazol-5-yl)-2-(4-((4-(methylsulfonyl)piperidin-1-yl)methyl)phenyl)-9-(tetrahydro-2H-pyran-4-yl)-3,6-dihydro-7H-pyrrolo[3,2-f][1,7]naphthyridin-7-one]	100 to 500	100 to 500	≤ 100	≤ 100
COC1CCC(c2c(-c3cc(C)no3)c(=O)n(C)c3cnc4[nH]c(-c5cnn(C)c5)cc4c23)CC1 (stereo not drawn) [Example 22, 9-(4-Methoxycyclohexyl)-6-methyl-2-(1-methyl-1H-pyrazol-4-yl)-8-(3-methylisoxazol-5-yl)-3,6-dihydro-7H-pyrrolo[3,2-f][1,7]naphthyridin-7-one]	100 to 500	100 to 500	≤ 100	≤ 100
Cc1cc(-c2c(-c3ccccc3)c3c4cc(-c5cnn(C)c5)[nH]c4ncc3n(C)c2=O)on1 [Example 23, 6-methyl-2-(1-methyl-1H-pyrazol-4-yl)-8-(3-methylisoxazol-5-yl)-9-phenyl-3,6-dihydro-7H-pyrrolo[3,2-f][1,7]naphthyridin-7-one]	100 to 500	100 to 500	≤ 100	≤ 100
COC1CCC(c2cc(=O)n(C)c3cnc4[nH]c(-c5cnn(C)c5)cc4c23)CC1 (stereo not drawn) [Example 24, 9-(4-methoxycyclohexyl)-6-methyl-2-(1-methyl-1H-pyrazol-4-yl)-3,6-dihydro-7H-pyrrolo[3,2-f][1,7]naphthyridin-7-one]	≤ 100	≤ 100	≤ 100	≤ 100
Cc1cc(-c2c(-c3ccc(C(=O)NCCO)cc3)c3c4cc(-c5cnn(C)c5)[nH]c4ncc3n(C)c2=O)on1 [Example 25, N-(2-hydroxyethyl)-4-(6-methyl-2-(1-methyl-1H-pyrazol-4-yl)-8-(3-methylisoxazol-5-yl)-7-oxo-6,7-dihydro-3H-pyrrolo[3,2-f][1,7]naphthyridin-9-yl)benzamide]	100 to 500	500 to 1000	≤ 100	≤ 100
